Test results reported in ChEMBL document CHEMBL1138549, “Synthesis of new 2-substituted pyrido[2,3-d]pyrimidin-4(1H)-ones and their antibacterial activity” (2009).
≈ marks a conversion by molar mass, not a printed value. Calls of active or inactive are those of the source. The rule behind the calls is not given here.

Legend:
Bacillus subtilis = assay: Antibacterial activity against Bacillus subtilis MTCC 441 after 24 hrs by NCCLS M7-A5 method; assay type: functional; settings: MTCC 441, 24 h
Staphylococcus aureus = assay: Antibacterial activity against Staphylococcus aureus MTCC 96 after 24 hrs by NCCLS M7-A5 method; assay type: functional; settings: MTCC 96, 24 h
Escherichia coli = assay: Antibacterial activity against Escherichia coli MTCC 722 after 24 hrs by NCCLS M7-A5 method; assay type: functional; settings: MTCC 722, 24 h
Klebsiella pneumoniae = assay: Antibacterial activity against Klebsiella pneumoniae MTCC 109 after 24 hrs by NCCLS M7-A5 method; assay type: functional; settings: MTCC 109, 24 h
Aspergillus niger = assay: Antifungal activity against Aspergillus niger at 200 ug/ml; assay type: functional, organism-based
Candida albicans = assay: Antifungal activity against Candida albicans at 200 ug/ml; assay type: functional, organism-based
MCF7 = assay: Cytotoxicity against human MCF7 cells up to 150 ug/ml; assay type: functional, cell-based

| MIC (Bacillus subtilis) [µg/mL] | MIC (Staphylococcus aureus) [µg/mL] | MIC (Escherichia coli) [µg/mL] | MIC (Klebsiella pneumoniae) [µg/mL] | SMILES | Activity (Aspergillus niger) | Activity (Candida albicans) | Activity (MCF7) |
| --- | --- | --- | --- | --- | --- | --- | --- |
| 12.5 (≈ 48.6 µM) | 25 (≈ 97.2 µM) | 12.5 (≈ 48.6 µM) | 50 (≈ 194 µM) | Cc1cc(C)c2c(=O)[nH]c(-c3cccs3)nc2n1 | inactive | inactive | Not toxic |
| 6.25 (≈ 22.2 µM) | 12.5 (≈ 44.4 µM) | 12.5 (≈ 44.4 µM) | 25 (≈ 88.9 µM) | Cc1cc(C)c2c(n1)NC(c1cccc(C)c1C)NC2=O (configuration not stated) | inactive | inactive | Not toxic |
| 25 (≈ 77.6 µM) | 50 (≈ 155 µM) |  | 100 (≈ 310 µM) | Cc1cc(C)c2c(n1)NC(c1cccc(Cl)c1Cl)NC2=O (configuration not stated) | inactive | inactive | Not toxic |
| 6.25 (≈ 22.1 µM) | 12.5 (≈ 44.1 µM) | 3.25 (≈ 11.5 µM) | 6.25 (≈ 22.1 µM) | COc1ccc(C2NC(=O)c3c(C)cc(C)nc3N2)cc1 (configuration not stated) | inactive | inactive | Not toxic |
| 12.5 (≈ 51.8 µM) | 25 (≈ 104 µM) | 25 (≈ 104 µM) | 50 (≈ 207 µM) | Cc1cc(C)c2c(=O)[nH]c(-c3ccco3)nc2n1 | inactive | inactive | Not toxic |
| 50 (≈ 156 µM) | 100 (≈ 312 µM) |  |  | Cc1cc(C)c2c(=O)[nH]c(-c3cccc(Cl)c3Cl)nc2n1 | inactive | inactive | Not toxic |
| 25.5 (≈ 82.4 µM) | 25 (≈ 80.8 µM) | 25 (≈ 80.8 µM) | 50 (≈ 162 µM) | CC(=O)Oc1ccc(-c2nc3nc(C)cc(C)c3c(=O)[nH]2)cc1 | inactive | inactive | Not toxic |
| 12.5 (≈ 41.8 µM) | 1.25 (≈ 4.18 µM) | 50 (≈ 167 µM) | 50 (≈ 167 µM) | COc1cc(C2NC(=O)c3c(C)cc(C)nc3N2)ccc1O (configuration not stated) | inactive | inactive | Not toxic |
| 12.5 (≈ 44.7 µM) | 12.5 (≈ 44.7 µM) | 12.5 (≈ 44.7 µM) | 50 (≈ 179 µM) | Cc1cc(C)c2c(=O)[nH]c(-c3cccc(C)c3C)nc2n1 | inactive | inactive | Not toxic |
| 3.25 (≈ 10.4 µM) | 12.5 (≈ 39.9 µM) | 25 (≈ 79.8 µM) | 12.5 (≈ 39.9 µM) | COc1ccc(C2NC(=O)c3c(C)cc(C)nc3N2)c(OC)c1 (configuration not stated) | inactive | inactive | Not toxic |
| 6.25 (≈ 24.1 µM) | 12.5 (≈ 48.2 µM) | 12.5 (≈ 48.2 µM) | 25 (≈ 96.4 µM) | Cc1cc(C)c2c(n1)NC(c1cccs1)NC2=O (configuration not stated) | inactive | inactive | Not toxic |
| 3.25 (≈ 9.46 µM) | 1.25 (≈ 3.64 µM) | 3.25 (≈ 9.46 µM) | 1.25 (≈ 3.64 µM) | COc1cc(C2NC(=O)c3c(C)cc(C)nc3N2)cc(OC)c1OC (configuration not stated) | inactive | inactive | Not toxic |
| 12.5 (≈ 42.3 µM) | 6.25 (≈ 21.2 µM) | 6.25 (≈ 21.2 µM) | 12.5 (≈ 42.3 µM) | Cc1cc(C)c2c(=O)[nH]c(-c3cc(C)c(O)c(C)c3)nc2n1 | inactive | inactive | Not toxic |
| 3.25 (≈ 13.4 µM) | 12.5 (≈ 51.4 µM) | 25 (≈ 103 µM) | 12.5 (≈ 51.4 µM) | Cc1cc(C)c2c(n1)NC(c1ccco1)NC2=O (configuration not stated) | inactive | inactive | Not toxic |
| 6.25 (≈ 20.1 µM) | 6.25 (≈ 20.1 µM) | 12.5 (≈ 40.1 µM) | 12.5 (≈ 40.1 µM) | COc1ccc(-c2nc3nc(C)cc(C)c3c(=O)[nH]2)cc1OC | inactive | inactive | Not toxic |
| 25 (≈ 83.5 µM) | 25 (≈ 83.5 µM) | 50 (≈ 167 µM) | 25 (≈ 83.5 µM) | COc1ccc(C2NC(=O)c3c(C)cc(C)nc3N2)c(O)c1 (configuration not stated) | inactive | inactive | Not toxic |
| 6.25 (≈ 20.1 µM) | 12.5 (≈ 40.1 µM) | 25 (≈ 80.3 µM) | 50 (≈ 161 µM) | CC(=O)Oc1ccc(C2NC(=O)c3c(C)cc(C)nc3N2)cc1 (configuration not stated) | inactive | inactive | Not toxic |
| 12.5 (≈ 40.1 µM) | 25 (≈ 80.3 µM) | 25 (≈ 80.3 µM) | 50 (≈ 161 µM) | COc1ccc(-c2nc3nc(C)cc(C)c3c(=O)[nH]2)c(OC)c1 | inactive | inactive | Not toxic |
| 25 (≈ 84.1 µM) | 12.5 (≈ 42 µM) | 50 (≈ 168 µM) | 50 (≈ 168 µM) | COc1cc(-c2nc3nc(C)cc(C)c3c(=O)[nH]2)ccc1O | inactive | inactive | Not toxic |
| 50 (≈ 187 µM) | 50 (≈ 187 µM) | 50 (≈ 187 µM) | 100 (≈ 374 µM) | Cc1cc(C)c2c(=O)[nH]c(-c3ccccc3O)nc2n1 | inactive | inactive | Not toxic |
| 25 (≈ 92.8 µM) | 50 (≈ 186 µM) | 50 (≈ 186 µM) | 50 (≈ 186 µM) | Cc1cc(C)c2c(n1)NC(c1ccccc1O)NC2=O (configuration not stated) | inactive | inactive | Not toxic |
| 50 (≈ 168 µM) | 50 (≈ 168 µM) | 50 (≈ 168 µM) | 50 (≈ 168 µM) | COc1ccc(-c2nc3nc(C)cc(C)c3c(=O)[nH]2)c(O)c1 | inactive | inactive | Not toxic |
| 12.5 (≈ 36.6 µM) | 6.25 (≈ 18.3 µM) | 25 (≈ 73.2 µM) | 6.25 (≈ 18.3 µM) | COc1cc(-c2nc3nc(C)cc(C)c3c(=O)[nH]2)cc(OC)c1OC | inactive | inactive | Not toxic |
| 3.25 (≈ 10.4 µM) | 3.25 (≈ 10.4 µM) | 6.25 (≈ 19.9 µM) | 12.5 (≈ 39.9 µM) | COc1ccc(C2NC(=O)c3c(C)cc(C)nc3N2)cc1OC (configuration not stated) | inactive | inactive | Not toxic |
| 25 (≈ 88.9 µM) | 12.5 (≈ 44.4 µM) | 12.5 (≈ 44.4 µM) | 25 (≈ 88.9 µM) | COc1ccc(-c2nc3nc(C)cc(C)c3c(=O)[nH]2)cc1 | inactive | inactive | Not toxic |
| 3.25 (≈ 10.9 µM) | 3.25 (≈ 10.9 µM) | 6.25 (≈ 21 µM) | 12.5 (≈ 42 µM) | Cc1cc(C)c2c(n1)NC(c1cc(C)c(O)c(C)c1)NC2=O (configuration not stated) | inactive | inactive | Not toxic |

| SMILES | MIC (Bacillus subtilis) [µg/mL] | MIC (Staphylococcus aureus) [µg/mL] | MIC (Escherichia coli) [µg/mL] | MIC (Klebsiella pneumoniae) [µg/mL] | Activity (Aspergillus niger) | Activity (Candida albicans) | Activity (MCF7) |
| --- | --- | --- | --- | --- | --- | --- | --- |
| O=C(O)c1cn(C2CC2)c2cc(N3CCNCC3)c(F)cc2c1=O [CIPROFLOXACIN] | 0.78 (≈ 2.35 µM) | 0.39 (≈ 1.18 µM) |  | 0.78 (≈ 2.35 µM) |  |  |  |
